Measured values: patent US20120157401A1, “METHODS FOR TREATING NEUROFIBROMATOSIS” (PTC Therapeutics, Inc., priority 2009, published 2012)

What was measured:
tumor volume = assay: Patients: tumor volume by MRI; format: in vivo, human
Excerpt: Antitumor activity: Previously used radiographic response and progression criteria (see, e.g., Widemann et al., J. Clin. Oncol., January 2006, 24(3):507-16; and di Tomaso, “Preliminary success with anti-angiogenic therapy of NF2-related tumors” (Meeting abstract) 2008 NF Conference, Children's Tumor Foundation, Bonita Springs, Fla., Jun. 6-10, 2008) can be used to evaluate the ability of a Compound to specifically induce tumor shrinkage.
Timing of Tumor Volume Assessment: Subjects may undergo tumor volume measurement at screening, and at various times throughout the treatment protocol.
Method of Assessment: The determination of antitumor efficacy may be based on objective tumor assessments made according to volumetric measurement (see Widemann et al., J Clin Oncol. 2006 Jan. 20; 24(3):507-16; di Tomaso et al., Preliminary success with anti-angiogenic therapy of NF2-related tumors. (Meeting abstract). 2008 NF Conference, Children's Tumor Foundation, Bonita Springs, Fla., Jun. 6-10, 2008; Harris et al., Neurosurgery. 2008 June 62(6): 1314-9) and treatment decisions by the physician can be based on these assessments.
The MRI examinations may be performed using a standard head coil with 1.5-T scanners. […] For VS quantitative assessment, the MRI scans may be transmitted to a Vitrea2 workstation (Vital Images, Minnetonka, Minn.) for image processing and volume calculation.

CYP3A4 = target: T1, CYP3A4 (Homo sapiens, UniProt P08684); assay: CYP inhibition: CYP3A4; format: in vitro ADME; conditions: human hepatic microsomes or recombinant isoenzymes
T1 construct: host or cells: human hepatic microsomes or recombinant isoenzyme (not distinguished)
T1 sequence (P08684 whole entry): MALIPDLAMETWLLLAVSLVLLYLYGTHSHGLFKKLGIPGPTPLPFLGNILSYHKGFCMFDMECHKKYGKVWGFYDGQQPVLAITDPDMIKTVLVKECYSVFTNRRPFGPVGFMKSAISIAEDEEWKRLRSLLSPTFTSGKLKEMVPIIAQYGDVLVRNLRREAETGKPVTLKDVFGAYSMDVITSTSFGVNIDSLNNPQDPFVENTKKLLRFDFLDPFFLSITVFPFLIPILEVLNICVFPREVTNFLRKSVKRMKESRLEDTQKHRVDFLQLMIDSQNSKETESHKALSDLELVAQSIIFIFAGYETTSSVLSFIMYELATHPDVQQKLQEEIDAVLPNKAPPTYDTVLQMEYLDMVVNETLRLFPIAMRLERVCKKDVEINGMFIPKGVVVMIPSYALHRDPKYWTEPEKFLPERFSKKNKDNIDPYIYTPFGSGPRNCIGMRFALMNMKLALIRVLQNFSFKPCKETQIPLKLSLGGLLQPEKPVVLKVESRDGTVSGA
Excerpt: It is possible that in certain clinical trial subjects, such agents may need to be adjusted for dosing or replaced by alternative agents that are not metabolized by CYP2D6, particularly when such agents may have a low therapeutic index.

[1] = Phase 1 multiple-dose study in healthy volunteers: safety and tolerability; format: in vivo, human
Excerpt: Methods. The trial was a Phase 1, randomized, escalating multiple dose, single center study conducted in 2 stages.

[2] = test system: soluble VEGF121 and VEGF165 isoforms; assay: VEGF inhibition EC50 by ELISA in the same human tumor cell lines (Table 25); format: cell-based
Experimental: Results. […] The conditioned media were collected and assayed by ELISA for soluble VEGF121 and VEGF165 isoforms (as described in Section 9.1.1.1); results were calculated as percentage inhibition relative to vehicle treated controls. EC50 values were calculated from the concentration response curves.

[3] = Oral toxicokinetics in dogs; format: in vivo, beagle dogs
Experimental: The pharmacokinetic evaluations in mice were adjuncts to the primary pharmacodynamic xenograft studies. The evaluations in rats included toxicokinetic assessments in single-dose, 7-day, and 28-day toxicology studies as well as a mass-balance study after a single oral dose of ^14C-Compound #10. The evaluations in dogs included toxicokinetic assessments in 7-day and 28-day toxicology studies. In the studies performed, rodents were dosed once daily with Compound #10 formulated in vehicle and administered via oral gavage.

[4] = 28-day oral toxicity study in dogs (15-day recovery)
Experimental: The L23 vehicle was used. […] All studies in the toxicology program were conducted according to GLP regulations.

HT1080 xenografts = assay: HT1080 xenograft selectivity studies: tumor size; format: in vivo, athymic nude mice
Experimental: In all of these experiments, HT1080 cells (5×10^6 cells/mouse) were implanted subcutaneously in male athymic nude mice. When tumors had become established, mice were divided into groups (10 mice/group). […] Tumor size was measured by calipers at the beginning and end of treatment. At the completion of Compound administration, the mice were sacrificed, and excised tumors were assayed by ELISA for intratumoral VEGF or other angiogenic factors using methods analogous to those described in Section 9.1.1.1.

[5] = test system: soluble VEGF121 and VEGF165 isoforms; assay: ELISA of soluble VEGF121/165 production in HeLa cells during hypoxia or normoxia; format: cell-based, human; conditions: 48 hours
Experimental: Experimental Design. HeLa (human cervical carcinoma) cell cultures were established under normoxic conditions (21% oxygen). HeLa cells increase VEGF production 4- to 5-fold in response to hypoxia. […] At the completion of treatment, the conditioned media were collected and the VEGF protein levels were assayed in an enzyme-linked immunosorbent assay (ELISA) with primary antibodies that recognize the soluble VEGF121 and VEGF165 isoforms (R & D Systems, Minneapolis, Minn., USA). To ensure that decreases in VEGF concentration were not due to cytotoxicity, cultures were assayed using a standard assay ([…]-GLO® Luminescent Cell Viability Assay; Promega, Madison, Wis., USA) that measures total cellular adenosine triphosphate (ATP) concentrations as an indicator of cell viability.

[6] = Patients: hearing function (word recognition, pure tone threshold, BAER); format: in vivo, human
Excerpt: Hearing function: Assessments of word recognition and pure tone thresholds may be direct measures of patient functioning that define symptomatic consequences of the presence of VS (see, e.g., Halpin et al., Otol Neurotol., January 2006, 27(1):110-6). Standard clinical criteria for definition of hearing response (H-R) based on a 50-word hearing test (see, e.g., Thornton et al., J. Speech Hear. Res., September 1978, 21(3): 507-18) can be employed for word recognition tests.
Hearing Tests. Subjects may undergo hearing tests at screening, and at various times during the treatment protocol. Hearing assessment may be determined in standard clinical fashion and may include:
Determination of word recognition scores using a standardized list of test words, i.e., the 50-item Central Institute for the Deaf [CID] list W-22, recorded) (Thornton et al., J. Speech Hear Res., September 1978, 21(3): 507-18);
Pure-tone averages calculated as the average of the pure-tone thresholds at 500, 1000, 2000, and 3000 Hz;
Brainstem auditory evoked response (BAERs) reported as the latency of wave V, if present; and […]

## COc1ccc(C2c3[nH]c4ccc(Cl)cc4c3CCN2C(=O)Oc2ccc(Cl)cc2)cc1 (racemic) [Compound #10]
Tumor volume
  Tumor volume, one patient (FIG. 40): reducing and stabilizing tumor volume
CYP3A4
  Inhibition of CYP3A4: No meaningful inhibition
[1]; healthy volunteers, 7 days
  Grade of treatment emergent adverse events and laboratory abnormalities: generally Grade 1
  QTc prolongation: no meaningful QTc prolongation
[1]; through the highest dose level tested ([…] TID)
  Maximum tolerated dose: No MTD was established
[2]; Homo sapiens, ASPC1, ASPC-1 (Pancreas), 48 hours
  EC50: > 30000 nM
[2]; Homo sapiens, HCT-116, HCT116 (Colorectal), 48 hours
  EC50: 10 nM
[2]; Homo sapiens, HT-1080, HT1080 (Fibrosarcoma), 48 hours
  EC50: 10 nM
[2]; Homo sapiens, PL45, PL-45, 48 hours
  EC50: > 30000 nM
[2]; Homo sapiens, HEK293 (Renal cell), 48 hours
  EC50: 10 nM
[2]; Homo sapiens, HPAF-2, 48 hours
  EC50: > 30000 nM
[2]; Homo sapiens, HeLa (Cervical), 48 hours
  EC50: 2 nM
[2]; Homo sapiens, NCI H460 (Lung), 48 hours
  EC50: 10 nM
[2]; Homo sapiens, U-87MG (Glioblastoma), 48 hours
  EC50: > 30000 nM
[2]; PC-3, 48 hours
  EC50: > 30000 nM
[3]
  Oral bioavailability: orally bioavailable
[4]
  Dose of maximal exposures: 30 mg/kg/dose BID
[4]; high dose
  Target organ of toxicity: small intestine
HT1080 xenografts; Study 1: 1 mg/kg oral BID, 28 days
  Final mean Compound #10-treated tumor size: 450 mm^3
HT1080 xenografts; Study 2: 5 mg/kg oral BID, 7 days
  Final mean Compound #10-treated tumor size: 595 mm^3
HT1080 xenografts; Study 3: 5 mg/kg oral BID, 10 days
  Final mean Compound #10-treated tumor size: 735 mm^3
HT1080 xenografts; Study 4: 5 mg/kg oral BID, 9 days
  Final mean Compound #10-treated tumor size: 953 mm^3
HT1080 xenografts; Study 5: 5/50 mg/kg oral BID, 15 days
  Final mean Compound #10-treated tumor size: 1922 mm^3
HT1080 xenografts; Study 6: 5 mg/kg oral QD, 21 days
  Final mean Compound #10-treated tumor size: 750 mm^3
HT1080 xenografts; Study 7: 10 mg/kg oral QD, 42 days
  Final mean Compound #10-treated tumor size: 1770 mm^3
[5]; hypoxia-induced
  Inhibition of stress-induced VEGF production (FIG. 25): inhibit stress-induced VEGF production
[5]; hypoxic (1% oxygen)
  Maximal decrease in VEGF concentration in conditioned media: 87%
  Mean VEGF concentration in conditioned media at maximal decrease: 175 pg/mL
[5]; normoxic
  Decrease in VEGF concentration in conditioned media: 39%
  Mean VEGF concentration in conditioned media in the presence of compound: 157 pg/mL
[6]
  Hearing function in patients (FIG. 39): stabilized hearing function
